Measured values as given in patent US10004809B2, “Precise delivery of therapeutic agents to cell mitochondria for anti-cancer therapy” (UNIVERSITY OF GEORGIA RESEARCH FOUNDATION, INC., priority 2013, dated 2018).

Tests used:
Format in all cases: cell-based, Human
[1] = system: DU145 cells; experiment: MTT cytotoxicity assay; settings: DU145 cells, MTT
Description: (§1) The cytotoxic behaviors of MITO-DCA, TPP-DCA, Na-DCA, and TPP-Tris-(OH)3 were evaluated using the MTT assay against PC3, DU145, LNCaP, and MSC cells. Cells (2000 cells/well for PC3, DU145, and MSC cells; 5000 cells/well for LNCaP) were seeded on a 96-well plate in 100 μL of desired medium and incubated for 24 h. The cells were treated with different DCA compounds and TPP-Tris-(OH)3 at varying concentrations and incubated for 72 h at 37° C. The cells were then treated with 20 μL of MTT (5 mg/mL in PBS) for 5 h. The medium was removed, the cells were lysed with 100 μL of DMSO, and the absorbance of the purple tormazan was recorded at 550 nm using a Bio-Tek Synergy HT microplate reader. Each well was performed in triplicate. All experiments were repeated three times. Cytotoxicity was expressed as mean percentage increase relative to the unexposed control±SD. Control values were set at 0% cytotoxicity or 100% cell viability. Cytotoxicity data (where appropriate) was fitted to a sigmoidal curve and a three parameters logistic model used to calculate the IC50, which is the concentration of chemotherapeutics causing 50% inhibition in comparison to untreated controls. The mean IC50 is the concentration of agent that reduces cell growth by 50% under the experimental conditions and is the average from at least three independent measurements that were reproducible and statistically significant. The IC50 values were reported at ±99% confidence intervals. This analysis was performed with GraphPad Prism (San Diego, U.S.A).

[2] = system: LNCaP cells; experiment: MTT cytotoxicity assay; settings: LNCaP cells, MTT
Description: as §1

[3] = system: PC3 cells; experiment: MTT cytotoxicity assay; settings: PC3 cells, MTT
Description: as §1

[4] = system: MSC cells; experiment: MTT cytotoxicity assay on normal cells; settings: 72 h
Description: as §1

[5] = system: PC3 cells; experiment: Intracellular lactate determination; settings: concentration not given
Description: Cytosolic metabolism of glucose to pyruvate occurs before its entry into mitochondria for oxidative phosphorylation. However, if not metabolized through oxidative phosphorylation as found in cancer, pyruvate gets converted by lactate dehydrogenase through glycolysis to lactate. Glycolysis in the absence of oxidative phosphorylation in cancer causes rise in lactate concentration. To test the ability of MITO-DCA to switch glucose metabolism from glycolysis to oxidative phosphorylation in cancer cells, intracellular lactate levels in glycolytic PC3 cells were measured and compared the value with those observed in less glycolytic LNCaP and normal MSC cells (FIG. 5A). To understand the importance of mitochondria targeting ligand and to explore the importance of a Tris platform to increase number of DCA molecule per targeting ligand, the parent drug Na-DCA and TPP-DCA were used as controls. Treatment of PC3 cells with 50 μM of MITO-DCA for 6 h reduced the intracellular lactate levels by 58±5%. […] Pronounced lactate concentration differences were observed between […] glycolytic PC3 and healthy MSC cells (FIG. 5A). […] None of the DCA compounds has any effect on the lactate levels in MSC cells (FIG. 5A).
PC3, LNCaP, and MSC cells were seeded at a density of 1×10^6 cells/mL on each well of a 12 well plate and allowed to grow overnight at 37° C. under 5% CO2. Cells were treated with 150 μM Na-DCA, 150 μM TPP-DCA, and 50 μM MITO-DCA for 6 h at 37° C. After 6 h, the media was removed and the cells were homogenized. The lysate was added to the enzyme and substrate working reagent mixture and incubated for 30 min. Lactate concentration was measured using Bio-Tek Synergy HT microplate reader at 450 nm and comparing to a standard curve.

O=C(CCCCC[P+](c1ccccc1)(c1ccccc1)c1ccccc1)NC(CO)(CO)CO.[Br-] [TPP-Tris-(OH)3]
Toxic effects (cytotoxicity profile) [1]: did not show any toxic effects | Toxic effects (cytotoxicity profile) [2]: did not show any toxic effects | Toxic effects (cytotoxicity profile) [3]: did not show any toxic effects | Toxicity in normal MSC cells [4]: did not show any toxic effects | Effect on intracellular lactate levels [5]: did not show any effect
